Measurements published in PubChem BioAssay (NCI).
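Exposure lasted 48 hours, with cells grown in 96-well plates and compounds tested at five concentrations. TGI denotes the concentration required for complete inhibition of growth.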

What was measured:
Test in all cases: inhibition of tumour cell growth, NCI panel, 48 h
786-0 renal = system: 786-0 renal
A498 renal = system: A498 renal
A549 NSCLC = system: A549 NSCLC
ACHN renal = system: ACHN renal
BT-549 breast = system: BT-549 breast
CAKI-1 renal = system: CAKI-1 renal
CCRF-CEM leukemia = system: CCRF-CEM leukemia
COLO 205 colon = system: COLO 205 colon
DU-145 prostate = system: DU-145 prostate
EKVX NSCLC = system: EKVX NSCLC
HCC-2998 colon = system: HCC-2998 colon
HCT-116 colon = system: HCT-116 colon
HCT-15 colon = system: HCT-15 colon
HL-60(TB) leukemia = system: HL-60(TB) leukemia
HOP-62 NSCLC = system: HOP-62 NSCLC
HOP-92 NSCLC = system: HOP-92 NSCLC
HS 578T breast = system: HS 578T breast
HT29 colon = system: HT29 colon
IGROV1 ovarian = system: IGROV1 ovarian
K-562 leukemia = system: K-562 leukemia
KM12 colon = system: KM12 colon
LOX IMVI melanoma = system: LOX IMVI melanoma
M14 melanoma = system: M14 melanoma
MALME-3M melanoma = system: MALME-3M melanoma
MCF7 breast = system: MCF7 breast
MDA-MB-231 breast = system: MDA-MB-231 breast
MDA-MB-435 = system: MDA-MB-435
MDA-N = system: MDA-N
MOLT-4 leukemia = system: MOLT-4 leukemia
NCI-H226 lung = system: NCI-H226 lung
NCI-H23 lung = system: NCI-H23 lung
NCI-H460 lung = system: NCI-H460 lung
NCI-H522 lung = system: NCI-H522 lung
NCI/ADR-RES ovarian = system: NCI/ADR-RES ovarian
OVCAR-3 ovarian = system: OVCAR-3 ovarian
OVCAR-4 ovarian = system: OVCAR-4 ovarian
OVCAR-5 ovarian = system: OVCAR-5 ovarian
OVCAR-8 ovarian = system: OVCAR-8 ovarian
PC-3 prostate = system: PC-3 prostate
RPMI-8226 leukemia = system: RPMI-8226 leukemia
RXF 393 renal = system: RXF 393 renal
SF-268 CNS = system: SF-268 CNS
SF-295 CNS = system: SF-295 CNS
SF-539 CNS = system: SF-539 CNS
SK-MEL-2 melanoma = system: SK-MEL-2 melanoma
SK-MEL-28 melanoma = system: SK-MEL-28 melanoma
SK-MEL-5 melanoma = system: SK-MEL-5 melanoma
SK-OV-3 ovarian = system: SK-OV-3 ovarian
SN12C renal = system: SN12C renal
SNB-19 CNS = system: SNB-19 CNS
SNB-75 CNS = system: SNB-75 CNS
SR leukemia = system: SR leukemia
SW-620 colon = system: SW-620 colon
T-47D breast = system: T-47D breast
TK-10 renal = system: TK-10 renal
U251 CNS = system: U251 CNS
UACC-257 melanoma = system: UACC-257 melanoma
UACC-62 melanoma = system: UACC-62 melanoma
UO-31 renal = system: UO-31 renal
DLD-1 colon = system: DLD-1 colon
DMS 114 small cell lung = system: DMS 114 small cell lung
DMS 273 small cell lung = system: DMS 273 small cell lung
KM20L2 colon = system: KM20L2 colon
LXFL 529 NSCLC = system: LXFL 529 NSCLC
M19-MEL melanoma = system: M19-MEL melanoma
SNB-78 CNS = system: SNB-78 CNS
XF 498 CNS = system: XF 498 CNS

CC(Cc1ccc(O)c(O)c1)C(C)Cc1ccc(O)c(O)c1 (stereo not given)
TGI (786-0 renal): 32.8 µM | TGI (A498 renal): 90.1 µM | TGI (A549 NSCLC): > 88.4 µM | TGI (ACHN renal): 33.5 µM | TGI (BT-549 breast): 26.8 µM | TGI (CAKI-1 renal): 25.4 µM | TGI (CCRF-CEM leukemia): 19.3 µM | TGI (COLO 205 colon): 35.9 µM | TGI (DU-145 prostate): 46.4 µM | TGI (EKVX NSCLC): 58.8 µM | TGI (HCC-2998 colon): 38.9 µM | TGI (HCT-116 colon): 34.2 µM | TGI (HCT-15 colon): > 60.8 µM | TGI (HL-60(TB) leukemia): 10.3 µM | TGI (HOP-62 NSCLC): 34.1 µM | TGI (HOP-92 NSCLC): 12.2 µM | TGI (HS 578T breast): 52.5 µM | TGI (HT29 colon): 51.5 µM | TGI (IGROV1 ovarian): 33.6 µM | TGI (K-562 leukemia): > 62.7 µM | TGI (KM12 colon): 33.5 µM | TGI (LOX IMVI melanoma): 38.8 µM | TGI (M14 melanoma): 34 µM | TGI (MALME-3M melanoma): 29.5 µM | TGI (MCF7 breast): 41.8 µM | TGI (MDA-MB-231 breast): > 57 µM | TGI (MDA-MB-435): 28.3 µM | TGI (MDA-N): 26.3 µM | TGI (MOLT-4 leukemia): > 62.5 µM | TGI (NCI-H226 lung): 59.8 µM | TGI (NCI-H23 lung): 46.6 µM | TGI (NCI-H460 lung): 35 µM | TGI (NCI-H522 lung): 4.91 µM | TGI (NCI/ADR-RES ovarian): 64.7 µM | TGI (OVCAR-3 ovarian): 27.4 µM | TGI (OVCAR-4 ovarian): 29.5 µM | TGI (OVCAR-5 ovarian): 50.7 µM | TGI (OVCAR-8 ovarian): 33.6 µM | TGI (PC-3 prostate): > 79.6 µM | TGI (RPMI-8226 leukemia): > 63.8 µM | TGI (RXF 393 renal): 31.7 µM | TGI (SF-268 CNS): 41.6 µM | TGI (SF-295 CNS): 43 µM | TGI (SF-539 CNS): 33.9 µM | TGI (SK-MEL-2 melanoma): 42.9 µM | TGI (SK-MEL-28 melanoma): 31.1 µM | TGI (SK-MEL-5 melanoma): 32.9 µM | TGI (SK-OV-3 ovarian): 84 µM | TGI (SN12C renal): > 51.6 µM | TGI (SNB-19 CNS): 50.9 µM | TGI (SNB-75 CNS): 61.7 µM | TGI (SR leukemia): > 74.3 µM | TGI (SW-620 colon): 49.9 µM | TGI (T-47D breast): 41.2 µM | TGI (TK-10 renal): > 87.7 µM | TGI (U251 CNS): 38.9 µM | TGI (UACC-257 melanoma): 37.9 µM | TGI (UACC-62 melanoma): 32.8 µM | TGI (UO-31 renal): 23.1 µM

O=C1OC(CN2CCN(c3ccccc3)CC2)CN1C(=S)Nc1ccccc1 (stereo not given)
TGI (786-0 renal): > 100 µM | TGI (A498 renal): > 100 µM | TGI (A549 NSCLC): > 100 µM | TGI (ACHN renal): > 100 µM | TGI (BT-549 breast): > 100 µM | TGI (CAKI-1 renal): > 100 µM | TGI (CCRF-CEM leukemia): > 100 µM | TGI (COLO 205 colon): > 100 µM | TGI (DU-145 prostate): > 100 µM | TGI (EKVX NSCLC): > 100 µM | TGI (HCC-2998 colon): > 100 µM | TGI (HCT-116 colon): > 100 µM | TGI (HCT-15 colon): > 100 µM | TGI (HL-60(TB) leukemia): > 100 µM | TGI (HOP-62 NSCLC): > 100 µM | TGI (HOP-92 NSCLC): > 100 µM | TGI (HS 578T breast): > 100 µM | TGI (HT29 colon): > 100 µM | TGI (IGROV1 ovarian): > 100 µM | TGI (K-562 leukemia): > 100 µM | TGI (KM12 colon): > 100 µM | TGI (LOX IMVI melanoma): > 100 µM | TGI (M14 melanoma): > 100 µM | TGI (MALME-3M melanoma): > 100 µM | TGI (MCF7 breast): > 100 µM | TGI (MDA-MB-231 breast): > 100 µM | TGI (MDA-MB-435): > 100 µM | TGI (MDA-N): > 100 µM | TGI (MOLT-4 leukemia): > 100 µM | TGI (NCI-H226 lung): > 100 µM | TGI (NCI-H23 lung): > 100 µM | TGI (NCI-H460 lung): > 100 µM | TGI (NCI-H522 lung): > 100 µM | TGI (NCI/ADR-RES ovarian): > 100 µM | TGI (OVCAR-3 ovarian): > 100 µM | TGI (OVCAR-4 ovarian): > 100 µM | TGI (OVCAR-5 ovarian): > 100 µM | TGI (OVCAR-8 ovarian): > 100 µM | TGI (PC-3 prostate): > 100 µM | TGI (RPMI-8226 leukemia): > 100 µM | TGI (RXF 393 renal): > 100 µM | TGI (SF-268 CNS): > 100 µM | TGI (SF-295 CNS): > 100 µM | TGI (SF-539 CNS): > 100 µM | TGI (SK-MEL-2 melanoma): > 100 µM | TGI (SK-MEL-28 melanoma): > 100 µM | TGI (SK-MEL-5 melanoma): > 100 µM | TGI (SK-OV-3 ovarian): > 100 µM | TGI (SN12C renal): > 100 µM | TGI (SNB-19 CNS): > 100 µM | TGI (SNB-75 CNS): > 100 µM | TGI (SR leukemia): > 100 µM | TGI (SW-620 colon): > 100 µM | TGI (T-47D breast): > 100 µM | TGI (TK-10 renal): > 100 µM | TGI (U251 CNS): > 100 µM | TGI (UACC-257 melanoma): > 100 µM | TGI (UACC-62 melanoma): > 100 µM | TGI (UO-31 renal): > 100 µM

Cc1ccc(N2C(=O)/C(=C3\Sc4c(nc(C)[nH]c4=O)N3c3ccccc3)SC2=S)cc1
TGI (786-0 renal): 25.3 µM | TGI (A498 renal): 88.2 µM | TGI (A549 NSCLC): > 100 µM | TGI (ACHN renal): > 100 µM | TGI (CAKI-1 renal): > 100 µM | TGI (CCRF-CEM leukemia): > 100 µM | TGI (COLO 205 colon): > 100 µM | TGI (DLD-1 colon): > 100 µM | TGI (DMS 114 small cell lung): > 100 µM | TGI (DMS 273 small cell lung): > 100 µM | TGI (EKVX NSCLC): > 100 µM | TGI (HCT-116 colon): > 100 µM | TGI (HCT-15 colon): > 100 µM | TGI (HL-60(TB) leukemia): > 100 µM | TGI (HOP-62 NSCLC): 25.9 µM | TGI (HOP-92 NSCLC): 97.3 µM | TGI (HT29 colon): > 100 µM | TGI (IGROV1 ovarian): > 100 µM | TGI (K-562 leukemia): 95.8 µM | TGI (KM20L2 colon): > 100 µM | TGI (LOX IMVI melanoma): 70.7 µM | TGI (LXFL 529 NSCLC): > 100 µM | TGI (M14 melanoma): > 100 µM | TGI (M19-MEL melanoma): > 100 µM | TGI (MALME-3M melanoma): > 100 µM | TGI (NCI-H226 lung): 86.6 µM | TGI (NCI-H23 lung): 56.7 µM | TGI (NCI-H460 lung): > 100 µM | TGI (NCI-H522 lung): > 100 µM | TGI (OVCAR-3 ovarian): 47.7 µM | TGI (OVCAR-4 ovarian): > 100 µM | TGI (OVCAR-5 ovarian): > 100 µM | TGI (OVCAR-8 ovarian): > 100 µM | TGI (RPMI-8226 leukemia): > 100 µM | TGI (SF-268 CNS): > 100 µM | TGI (SF-295 CNS): 54.8 µM | TGI (SF-539 CNS): 29.5 µM | TGI (SK-MEL-2 melanoma): > 100 µM | TGI (SK-MEL-28 melanoma): > 100 µM | TGI (SK-MEL-5 melanoma): > 100 µM | TGI (SK-OV-3 ovarian): 53.5 µM | TGI (SN12C renal): > 100 µM | TGI (SNB-19 CNS): > 100 µM | TGI (SNB-75 CNS): 56.4 µM | TGI (SNB-78 CNS): > 100 µM | TGI (SW-620 colon): > 100 µM | TGI (TK-10 renal): 59.2 µM | TGI (U251 CNS): 37.9 µM | TGI (UACC-257 melanoma): > 100 µM | TGI (UACC-62 melanoma): > 100 µM | TGI (UO-31 renal): 92.1 µM | TGI (XF 498 CNS): 51.8 µM
